Laboratory results as given in patent EP1100539B1, “COMBINATION OF ACTIVE SUBSTANCES, ESPECIALLY FOR THE PROPHYLAXIS AND THERAPY OF ISCHAEMIC ORGANIC LESIONS AND REPERFUSION SYNDROMES” (Vascular Biotech GmbH, priority 1998, dated 2000).
“And” between values parts separate entries of the source, which are not always exact repeats. Equal entries are not always repeated.

Tested on: Meerschweinchenherzen
Experiment: Working guinea pig heart, ischaemia/reperfusion with activated PMN and platelets (Versuchsgruppe 1)
Design: species or system Meerschweinchen
Details: for Herzleistung [% der initialen Leistung] / Interstitielles Volumen / Koronarfluß [% des Basalflusses]: flavone derivative 3*10^-5 M, individual hearts; for protektive Wirkung: ischaemic heart, Versuchsgruppe 1
Experimental: Pathogene Wirkung von gleichzeitig aktivierten PMN und Thrombozyten im ischämischen Herzen. Als Studienobjekt dienten arbeitende, also Volumen gegen bestimmte Drucke auswerfende Meerschweinchenherzen. […] Thrombin, FMLP ([…]-Formyl-[…]) und […] Interaktion der Blutzellen mit dem koronaren Endothel bei diesen Versuchen. Tabelle 3: ^i Als Blutzellpräparate wurden eingesetzt: a) hochreine PMN (1-2*10^5/ml), […] Vorinkubation mit 100 μM […]) bzw. […] von PMN und TASS (bzw. T) in jeweils analogen Konzentrationen. Tabelle 3 gibt die unter […] bei […] von PMN und Thrombozyten (TASS = […] Vorinkubation mit 100μM […] = nicht […].

[1] = PMN+T (platelets not preincubated with Acetylsalicylsäure)
[2] = PMN+TASS (platelets preincubated 1 h with 100 µM Acetylsalicylsäure, washed)
[3] = acute application of the flavonoid alone
[4] = flavonoid applied in combination with Acetylsalicylsäure

Molecule | Herzleistung [% der initialen Leistung] [1] | Interstitielles Volumen [1] | Koronarfluß [% des Basalflusses] [1] | Herzleistung [% der initialen Leistung] [2] | Interstitielles Volumen [2] | Koronarfluß [% des Basalflusses] [2] | protektive Wirkung | Verschlechterung der postischämischen Funktionsdaten (ΔP/Δt; interstitielles Volumen; Koronarfluß) [3] | Verschlechterung der postischämischen Funktionsdaten (ΔP/Δt; interstitielles Volumen; Koronarfluß) [4]
O=C1CCOc2ccccc21 [4-Chromanon, reference compound] | 27 % der initialen Leistung and 29 % der initialen Leistung and 38 % der initialen Leistung and 31 % der initialen Leistung and 17 % der initialen Leistung and 22 % der initialen Leistung | 373 µL/g and 348 µL/g and 354 µL/g and 318 µL/g and 356 µL/g | 44 % des Basalflusses and 19 % des Basalflusses and 35 % des Basalflusses and 26 % des Basalflusses and 29 % des Basalflusses | 79 % der initialen Leistung and 81 % der initialen Leistung and 74 % der initialen Leistung and 71 % der initialen Leistung and 69 % der initialen Leistung and 78 % der initialen Leistung | 155 µL/g and 148 µL/g and 168 µL/g and 161 µL/g and 165 µL/g | 88 % des Basalflusses and 74 % des Basalflusses and 79 % des Basalflusses (2×) and 81 % des Basalflusses and 82 % des Basalflusses | keine protektive Wirkung |  | 
O=c1cc(-c2ccccc2)oc2ccccc12 [Flavon, reference compound] | 31 % der initialen Leistung (2×) and 18 % der initialen Leistung and 35 % der initialen Leistung and 29 % der initialen Leistung | 344 µL/g and 389 µL/g and 388 µL/g and 358 µL/g and 346 µL/g | 33 % des Basalflusses and 19 % des Basalflusses and 31 % des Basalflusses and 28 % des Basalflusses and 29 % des Basalflusses | 78 % der initialen Leistung and 81 % der initialen Leistung and 69 % der initialen Leistung and 82 % der initialen Leistung and 83 % der initialen Leistung | 129 µL/g and 153 µL/g and 145 µL/g and 148 µL/g and 169 µL/g | 88 % des Basalflusses and 77 % des Basalflusses and 73 % des Basalflusses and 81 % des Basalflusses and 87 % des Basalflusses | keine protektive Wirkung |  | 
O=C1C[C@@H](c2ccc(O)cc2)Oc2cc(O)cc(O)c21 [Naringenin] | 63 % der initialen Leistung and 49 % der initialen Leistung and 54 % der initialen Leistung and 69 % der initialen Leistung and 68 % der initialen Leistung | 169 µL/g and 175 µL/g and 189 µL/g and 205 µL/g and 198 µL/g | 57 % des Basalflusses and 55 % des Basalflusses and 63 % des Basalflusses and 51 % des Basalflusses and 45 % des Basalflusses and 46 % des Basalflusses | 90 % der initialen Leistung and 97 % der initialen Leistung and 84 % der initialen Leistung and 94 % der initialen Leistung and 82 % der initialen Leistung and 89 % der initialen Leistung | 98 µL/g and 117 µL/g and 107 µL/g and 109 µL/g and 102 µL/g | 107 % des Basalflusses and 98 % des Basalflusses and 93 % des Basalflusses and 92 % des Basalflusses and 89 % des Basalflusses and 101 % des Basalflusses |  | abgeschwächt | vollständig aufgehoben
O=c1c(O)c(-c2ccc(O)c(O)c2)oc2cc(O)cc(O)c12 [Quercetin] | 66 % der initialen Leistung and 69 % der initialen Leistung and 58 % der initialen Leistung and 44 % der initialen Leistung and 70 % der initialen Leistung | 159 µL/g and 178 µL/g and 181 µL/g and 185 µL/g and 162 µL/g | 61 % des Basalflusses and 49 % des Basalflusses (2×) and 55 % des Basalflusses and 62 % des Basalflusses and 40 % des Basalflusses | 82 % der initialen Leistung and 86 % der initialen Leistung and 90 % der initialen Leistung and 85 % der initialen Leistung and 94 % der initialen Leistung | 108 µL/g and 113 µL/g and 107 µL/g and 104 µL/g and 125 µL/g and 118 µL/g | 101 % des Basalflusses and 107 % des Basalflusses and 89 % des Basalflusses and 95 % des Basalflusses and 91 % des Basalflusses |  | abgeschwächt | vollständig aufgehoben
Catechin [reference compound] | 36 % der initialen Leistung and 39 % der initialen Leistung and 31 % der initialen Leistung and 26 % der initialen Leistung and 18 % der initialen Leistung | 351 µL/g and 310 µL/g and 311 µL/g and 317 µL/g and 370 µL/g | 37 % des Basalflusses and 27 % des Basalflusses and 34 % des Basalflusses and 17 % des Basalflusses and 14 % des Basalflusses and 28 % des Basalflusses | 75 % der initialen Leistung and 68 % der initialen Leistung and 67 % der initialen Leistung and 81 % der initialen Leistung (2×) and 77 % der initialen Leistung | 145 µL/g and 157 µL/g and 163 µL/g and 148 µL/g and 166 µL/g | 88 % des Basalflusses and 78 % des Basalflusses and 82 % des Basalflusses and 79 % des Basalflusses and 85 % des Basalflusses | keine protektive Wirkung |  | 
Dihydroxyethylrutosid | 49 % der initialen Leistung and 58 % der initialen Leistung and 65 % der initialen Leistung and 72 % der initialen Leistung and 78 % der initialen Leistung and 74 % der initialen Leistung | 144 µL/g and 186 µL/g and 151 µL/g and 157 µL/g and 165 µL/g | 49 % des Basalflusses and 51 % des Basalflusses and 39 % des Basalflusses and 47 % des Basalflusses and 64 % des Basalflusses and 69 % des Basalflusses | 93 % der initialen Leistung and 94 % der initialen Leistung and 86 % der initialen Leistung and 84 % der initialen Leistung and 89 % der initialen Leistung | 98 µL/g and 104 µL/g and 95 µL/g and 115 µL/g and 107 µL/g and 109 µL/g | 102 % des Basalflusses and 107 % des Basalflusses and 98 % des Basalflusses and 93 % des Basalflusses and 95 % des Basalflusses and 89 % des Basalflusses |  | abgeschwächt | vollständig aufgehoben
